This data set in a line: Relaxivity measurements at 1.4 T. Format: physicochemical. Particulars: 1.41 T (60 MHz), 37°C, normalized to Mn. The protocol: T1 and T2 relaxation time were measured at 60 MHz (1.41 T) and 37°C using a Bruker mq60 minispec contrast agent analyzer. Manganese containing chelates were dissolved in different media at and each relaxivity measurement was performed using three different Mn concentrations. Measurement of r1 and r2 relaxivities were performed using concentrations of 0, 0.25, 0.5 and 1mM Mn in water and human plasma containing heparin as anticoagulant. The relaxivities ri (where i=1, 2) were calculated based on the measured relaxation rates Ri in water and plasma: ri = (Ri−Ri(0))/CMn [formula] where Ri(0) represent the relaxation rate of the respective solvent and CMn the concentration of the compound normalized to Manganese. The Manganese concentrations of the investigated solutions were verified by Inductively Coupled Plasma Mass Spectrometry (ICP-MS Agilent 7500a, Waldbronn, Germany). Table 1: Relaxivities of investigated compound in water and human plasma at 1.41 T. All values are measured at 37°C and normalized to Mn and given in L mmol-1 s-1.

Compound `O=C(CCC(C(=O)[O-])N1CCOCCN(C(CCC(=O)NC[C@H](O)[C@@H](O)[C@H](O)[C@H](O)CO)C(=O)[O-])Cc2cccc(n2)C1)NC[C@H](O)[C@@H](O)[C@H](O)[C@H](O)CO.[Mn+2]` (stereo partly drawn) [Example 2, manganese(^2+) 2-[9-(1-carboxylato-4-oxo-4-{[(2S,3R,4R,5R)-2,3,4,5,6-pentahydroxyhexyl]amino}butyl)-6-oxa-3,9,15-triazabicyclo[9.3.1]pentadeca-1(15),11,13-trien-3-yl]-5-oxo-5-{[(2S,3R,4R,5R)-2,3,4,5,6-pentahydroxyhexyl]amino}pentanoate] showed a r1 (human plasma (heparin as anticoagulant)) of 6.4 L mM^-1s^-1 and a r1 (water) of 5.0 L mM^-1s^-1.

(Values after patent publication EP4464708A1, “NEW CONTRAST AGENTS FOR USE IN DIAGNOSTIC IMAGING” (Bayer Aktiengesellschaft, priority 2023, dated 2024).)
